Marks after values point to notes of the source that are not given here. [I] = hypoxanthine (inosine)
Tests used:
[1] = High dosages of IRPs in rats (weight, deaths, histology); type: in vivo, Sprague Dawley rats; conditions: rat; for Heart: Cell Vacuolation, number of animals / Heart: Hemorrhage, number of animals / Heart: Mononuclear Cell Infiltration, number of animals / Heart: Necrosis, number of animals / Heart: No significant changes, number of animals / Liver: Liver changes, number of animals / Liver: Mixed cell infiltration, number of animals / Liver: Necrosis, number of animals / Liver: No significant changes, number of animals / Liver: Vacuolation, number of animals / Right Kidney: Hydronephrosis, number of animals / Right Kidney: Mineralization, number of animals / Right Kidney: Necrosis, number of animals / Right Kidney: No significant changes, number of animals / Right Kidney: Tubular basophilia, number of animals / Right Kidney: Tubular changes, number of animals: 6 animals
Method: To test the activity of IRPs at high dosages in rats, IRPs (SEQ ID NO:42 and SEQ ID NO:109) or a control (PBS) were subcutaneously administered to 8-9 weeks old, […], 3, 6, and 9 (n=6 per group). Rats were weighed prior to administration and on days 1, 3, 4, 6, 7, and 9. Organs were harvested at the end of the study, and organ weights and tissues levels of the oligonucleotides were determined. In addition, histolocial evaluation of the liver, kidney, and heart was performed.
Rats were weighed prior to administration and on days 1, 3, 6, 7, and 9. Organs were harvested at the end of the study, and organ weights and tissues levels of the oligonucleotides were determined. In addition, histological evaluation of the liver, kidney, and heart was performed.

[2] = High dosages of IRPs in mice (weight, histology); type: in vivo, BALB/c mice; conditions: for Liver: Liver changes, number of animals / Liver: Mixed cell infiltration, number of animals / Liver: No significan changes, number of animals / Right Kidney: No significant changes, number of animals / Right Kidney: Tubular basophilia, number of animals / Right Kidney: Tubular changes, number of animals: 6 animals; for Heart: No significant changes, number of animals: tissue missing in two animals
Method: To test the activity of IRPs at high dosages in mice, IRPs or a control (saline) were subcutaneously administered to BALB/c mice at a dosage of 4 mg/kg, 20 mg/kg, 50 mg/kg, or 100 mg/kg on days 1, 4, 7, and 10 (n=5 per group). Mice were weighed prior to administration and on days 2, 4, 7, 9, and 11. Serum cytokines were assayed at two hours post the first and third injections and 24 hours post the fourth injection. Organs were harvested at the end of the study, and organ weights and tissues levels of the oligonucleotides were determined. In addition, histological evaluation of the liver, kidney, and heart was performed.
Mice were weighed prior to administration and on days 1, 3, 4, 6, 7, and 9. Organs were harvested at the end of the study, and organ weights and tissues levels of the oligonucleotides were determined. In addition, histological evaluation of the liver, kidney, and heart was performed.

[3] = Monomer and tetramer formation of IRPs, size-exclusion HPLC; type: physicochemical; conditions: 100 mg/mL in PBS and 0.5M KCl, room temperature, five weeks
Method: Solutions were prepared of the by mixing 100 mg/mL of the IRP sequences in PBS and 0.5M KCl and storing at room temperature for three to five weeks. The solutions were subsequently analyzed by size-exclusion HPLC.

human B-cells = test: Human B-cells cultured in the presence of IRPs, IL-6
[4] = 10 mg/kg, 0 = no change to 4 = severe
[5] = 90 mg/kg, 0 = no change to 4 = severe
[6] = 50 mg/kg, 0 = no change to 4 = severe
[7] = 100 mg/kg, 0 = no change to 4 = severe

5′-TGC TGC TCC TGG AGI GGT GTT GT-3′ (DNA TGCTGCTCCTGGAGNGGTGTTGT; DNA, [I] at 15, backbone and methylation of C not given here) [SEQ ID NO:79]
Heart: Cell Vacuolation, number of animals ([1]; 10 mg/kg): 0
Heart: Hemorrhage, number of animals ([1]; 10 mg/kg): 0
Heart: Mononuclear Cell Infiltration, number of animals ([1]; 10 mg/kg): 0
Heart: Necrosis, number of animals ([1]; 10 mg/kg): 0
Heart: No significant changes, number of animals ([1]; 10 mg/kg): 6
Liver: Liver changes, number of animals ([1]; 10 mg/kg): 0
Liver: Mixed cell infiltration, number of animals ([1]; 10 mg/kg): 6
Liver: Necrosis, number of animals ([1]; 10 mg/kg): 0
Liver: No significant changes, number of animals ([1]; 10 mg/kg): 0
Liver: Vacuolation, number of animals ([1]; 10 mg/kg): 0
Right Kidney: Hydronephrosis, number of animals ([1]; 10 mg/kg): 0
Right Kidney: Mineralization, number of animals ([1]; 10 mg/kg): 2
Right Kidney: Necrosis, number of animals ([1]; 10 mg/kg): 0
Right Kidney: No significant changes, number of animals ([1]; 10 mg/kg): 1
Right Kidney: Tubular basophilia, number of animals ([1]; 10 mg/kg): 0
Right Kidney: Tubular changes, number of animals ([1]; 10 mg/kg): 5
Liver: Mixed cell infiltration, mean severity score [1, 4]: 1.8
Right Kidney: Mineralization, mean severity score [1, 4]: 1.0
Right Kidney: Tubular changes, mean severity score [1, 4]: 1.1
Heart: cellular vacuolation ([1]; 90 mg/kg): present in some animals
Heart: hemorrhage and necrosis ([1]; 90 mg/kg): noted
Kidney: tubular basophilia ([1]; 90 mg/kg): occurred
Liver: hepatocellular cytoplasmic vacuolation ([1]; 90 mg/kg): hepatocellular cytoplasmic vacuolation
Liver: hepatocellular necrosis ([1]; 90 mg/kg): hepatocellular necrosis
Renal necrosis ([1]; 90 mg/kg): noted
deaths two days after the first dose ([1]; 90 mg/kg SC, n=6): two rats died
deaths two days after the second dose ([1]; 90 mg/kg SC, n=6): one rat died
Heart: Cell Vacuolation, number of animals ([1]; 90 mg/kg): 2
Heart: Hemorrhage, number of animals ([1]; 90 mg/kg): 2
Heart: Mononuclear Cell Infiltration, number of animals ([1]; 90 mg/kg): 0
Heart: Necrosis, number of animals ([1]; 90 mg/kg): 3
Heart: No significant changes, number of animals ([1]; 90 mg/kg): 1
Liver: Liver changes, number of animals ([1]; 90 mg/kg): 3
Liver: Mixed cell infiltration, number of animals ([1]; 90 mg/kg): 3
Liver: Necrosis, number of animals ([1]; 90 mg/kg): 2
Liver: No significant changes, number of animals ([1]; 90 mg/kg): 0
Liver: Vacuolation, number of animals ([1]; 90 mg/kg): 3
Right Kidney: Hydronephrosis, number of animals ([1]; 90 mg/kg): 0
Right Kidney: Mineralization, number of animals ([1]; 90 mg/kg): 1
Right Kidney: Necrosis, number of animals ([1]; 90 mg/kg): 3
Right Kidney: No significant changes, number of animals ([1]; 90 mg/kg): 0
Right Kidney: Tubular basophilia, number of animals ([1]; 90 mg/kg): 2
Right Kidney: Tubular changes, number of animals ([1]; 90 mg/kg): 3
Heart: Cell Vacuolation, mean severity score [1, 5]: 1.5
Heart: Hemorrhage, mean severity score [1, 5]: 3.5
Heart: Necrosis, mean severity score [1, 5]: 2.0
Liver: Liver changes, mean severity score [1, 5]: 1.8
Liver: Mixed cell infiltration, mean severity score [1, 5]: 2.5
Liver: Necrosis, mean severity score [1, 5]: 2.8
Liver: Vacuolation, mean severity score [1, 5]: 2.3
Right Kidney: Mineralization, mean severity score [1, 5]: 2.0
Right Kidney: Necrosis, mean severity score [1, 5]: 4.0
Right Kidney: Tubular basophilia, mean severity score [1, 5]: 2.8
Right Kidney: Tubular changes, mean severity score [1, 5]: 2.0
Heart: Chronic inflammation, number of animals ([2]; 50 mg/kg): 2
Heart: Mineralization, number of animals ([2]; 50 mg/kg): 1
Heart: Chronic inflammation, mean severity score [2, 6]: 2.0
Heart: Mineralization, mean severity score [2, 6]: 2.0
Liver: Liver changes, mean severity score [2, 6]: 1.0
Liver: Mixed cell infiltration, mean severity score [2, 6]: 1.0
Liver: Liver changes, number of animals ([2]; 50 mg/kg): 6
Liver: Mixed cell infiltration, number of animals ([2]; 50 mg/kg): 4
Liver: No significan changes, number of animals ([2]; 50 mg/kg): 0
Right Kidney: No significant changes, number of animals ([2]; 50 mg/kg): 6
Right Kidney: Tubular basophilia, number of animals ([2]; 50 mg/kg): 0
Right Kidney: Tubular changes, number of animals ([2]; 50 mg/kg): 0
Heart: No significant changes, number of animals ([2]; 50 mg/kg): 1**
Heart: Chronic inflammation, number of animals ([2]; 100 mg/kg): 1
Heart: Mineralization, number of animals ([2]; 100 mg/kg): 2
Heart: Chronic inflammation, mean severity score [2, 7]: 3.0
Heart: Mineralization, mean severity score [2, 7]: 2.5
Liver: Liver changes, mean severity score [2, 7]: 2.0
Liver: Mixed cell infiltration, mean severity score [2, 7]: 2.0
Right Kidney: Tubular changes, mean severity score [2, 7]: 2.0
Liver: Liver changes, number of animals ([2]; 100 mg/kg): 6
Liver: Mixed cell infiltration, number of animals ([2]; 100 mg/kg): 6
Liver: No significan changes, number of animals ([2]; 100 mg/kg): 0
Right Kidney: No significant changes, number of animals ([2]; 100 mg/kg): 0
Right Kidney: Tubular basophilia, number of animals ([2]; 100 mg/kg): 0
Right Kidney: Tubular changes, number of animals ([2]; 100 mg/kg): 6
Heart: No significant changes, number of animals ([2]; 100 mg/kg): 1**
fraction in monomer form [3]: 100%
Normalized IL-6 Response (Percentage of Positive Control) (human B-cells; Experiment # 1, Max Conc 4.0 uM): 33%
Normalized IL-6 Response (Percentage of Positive Control) (human B-cells; Experiment # 3, Max Conc 4.0 uM): 18%
Normalized IL-6 Response (Percentage of Positive Control) (human B-cells; Experiment # 11, Max Conc 2.0 uM): 28%
B-cell stimulatory activity (human B-cells; FIG. 1C, percent IL-6 from CpG-ISS): low B-cell stimulatory activity
